The values below come from patent US9221827B2, “Antimicrobial compounds and methods of making and using the same” (Melinta Therapeutics, Inc., priority 2011, dated 2015).

This assay has as its system Escherichia coli strain ATCC25922. Description: standard microdilution assay to determine minimum inhibitory concentrations (MICs). Type of assay: cell-based. As to conditions: Escherichia coli strain ATCC25922, standard microdilution assay. In short, it runs like this: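 MICs come from CLSI-guided microdilution in 100 μl, run alongside reference-strain performance standards. Values appear as "+" or "−" relative to 16 micrograms/ml, with "N/A" marking missing data.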
In the case of `C[C@@H](N)CCc1cc(SC(F)(F)F)cc(-c2cc3cn(-c4ccc(CNCCCNC(=N)N)cc4)c(=O)nc3[nH]2)c1` [Compound 397], the “E. coli ATCC25922 MIC” value is listed as “+ (a “+” indicates that the compound has an MIC value of 16 micrograms/ml or less)”.
The entry for `C[C@H](NCCCNC(=N)N)c1ccc(-n2cc3cc(-c4cc(CC[C@@H](C)N)cc(SC(F)(F)F)c4)[nH]c3nc2=O)cc1` [Compound 398] is “+ (a “+” indicates that the compound has an MIC value of 16 micrograms/ml or less)”; for `CC[C@H](NCCCNC(=N)N)c1ccc(-n2cc3cc(-c4cc(CCC[C@H](C)N)cc(C(F)(F)F)c4)[nH]c3nc2=O)cc1` [Compound 400] it is “+ (a “+” indicates that the compound has an MIC value of 16 micrograms/ml or less)”; for `C[C@H](NCCCNC(=N)N)c1ccc(-n2cc3cc(-c4cc(C[C@H]5C[C@@H](CN)C5)cc(SC(F)(F)F)c4)[nH]c3nc2=O)cc1` [Compound 402] it is “+ (a “+” indicates that the compound has an MIC value of 16 micrograms/ml or less)”.
The entry for `C[C@H](NCCCNC(=N)N)c1ccc(-n2cc3cc(-c4cc(C[C@H]5C[C@H](CN)C5)cc(SC(F)(F)F)c4)[nH]c3nc2=O)cc1` [Compound 403] is “+ (a “+” indicates that the compound has an MIC value of 16 micrograms/ml or less)”; for `C[C@H](N)CCCc1cc(OC(F)(F)F)cc(-c2cc3cn(-c4ccc([C@@H](C)N)cc4)c(=O)nc3[nH]2)c1` [Compound 405] it is “− (a “−” indicates that the compound has an MIC value greater than 16 micrograms/ml)”; for `C[C@H](N)CCCc1cc(Cl)c(F)c(-c2cc3cn(-c4ccc([C@@H](C)N)cc4)c(=O)nc3[nH]2)c1` [Compound 406] it is “− (a “−” indicates that the compound has an MIC value greater than 16 micrograms/ml)”.
The entry for `CC[C@H](NCCCNC(=N)N)c1ccc(-n2cc3cc(-c4cc(CCC[C@H](C)N)cc(SC(F)(F)F)c4)[nH]c3nc2=O)cc1` [Compound 407] is “+ (a “+” indicates that the compound has an MIC value of 16 micrograms/ml or less)”.
Regarding `CC(C)c1cc(CCC[C@H](C)N)cc(-c2cc3cn(-c4ccc(CNCCCNC(=N)N)cc4)c(=O)nc3[nH]2)c1F` [Compound 408], the “E. coli ATCC25922 MIC” value is listed as “+ (a “+” indicates that the compound has an MIC value of 16 micrograms/ml or less)”.
The entry for `C[C@H](N)CCCc1cc(SC(F)(F)F)c(Cl)c(-c2cc3cn(-c4ccc([C@@H](C)N)cc4)c(=O)nc3[nH]2)c1` [Compound 409] is “− (a “−” indicates that the compound has an MIC value greater than 16 micrograms/ml)”; for `C[C@H](NCCCNC(=N)N)c1ccc(-n2cc3cc(-c4cc(CC[C@@H](C)N)cc(C(F)(F)F)c4)[nH]c3nc2=O)cc1` [Compound 410] it is “+ (a “+” indicates that the compound has an MIC value of 16 micrograms/ml or less)”.
`C[C@H](NCCCNC(=N)N)c1ccc(-n2cc3cc(-c4cc(CC[C@@H](C)N)cc(Cl)c4F)[nH]c3nc2=O)cc1` [Compound 411]: the “E. coli ATCC25922 MIC” value is “+ (a “+” indicates that the compound has an MIC value of 16 micrograms/ml or less)”.
Turning to `CCC[C@H](NCCCNC(=N)N)c1ccc(-n2cc3cc(-c4cc(CCC[C@H](C)N)cc(Cl)c4F)[nH]c3nc2=O)cc1` [Compound 415], the “E. coli ATCC25922 MIC” value is “+ (a “+” indicates that the compound has an MIC value of 16 micrograms/ml or less)”.
Next, `CCC[C@H](NCCCNC(=N)N)c1ccc(-n2cc3cc(-c4cc(CCC[C@H](C)N)cc(SC(F)(F)F)c4)[nH]c3nc2=O)cc1` [Compound 416]: “+ (a “+” indicates that the compound has an MIC value of 16 micrograms/ml or less)”; `C[C@H](N)CCCc1cc(-c2cc3cn(-c4ccc([C@H](C)NCCCNC(=N)N)cc4)c(=O)nc3[nH]2)cc2c1CCCC2` [Compound 417]: “+ (a “+” indicates that the compound has an MIC value of 16 micrograms/ml or less)”.
Turning to `CC(N)C(C)OCc1cc(OC(F)(F)F)cc(-c2cc3cn(-c4ccc(CNCCCNC(=N)N)cc4)c(=O)nc3[nH]2)c1` (stereo not drawn) [Compound 418], the “E. coli ATCC25922 MIC” value is on record as “+ (a “+” indicates that the compound has an MIC value of 16 micrograms/ml or less)”.
Next, `CC(NCCCNC(=N)N)c1ccc(-n2cc3cc(-c4cc(COC(C)C(C)N)cc(OC(F)(F)F)c4)[nH]c3nc2=O)cc1` (stereo not drawn) [Compound 419]: “+ (a “+” indicates that the compound has an MIC value of 16 micrograms/ml or less)”; `COC[C@H](N)CCCc1cc(SC(F)(F)F)cc(-c2cc3cn(-c4ccc(CNCCCNC(=N)N)cc4)c(=O)nc3[nH]2)c1` [Compound 424]: “+ (a “+” indicates that the compound has an MIC value of 16 micrograms/ml or less)”.
The entry for `CCC[C@H](NCCCNC(=N)N)c1ccc(-n2cc3cc(-c4cc(CCC[C@H](C)N)cc(C(F)(F)F)c4)[nH]c3nc2=O)cc1` [Compound 427] is “+ (a “+” indicates that the compound has an MIC value of 16 micrograms/ml or less)”; for `C[C@H](N)CCCc1cc(-c2cc3cn(-c4ccc([C@H](C)NCCCNC(=N)N)cc4)c(=O)nc3[nH]2)cc(Cl)n1` [Compound 428] it is “+ (a “+” indicates that the compound has an MIC value of 16 micrograms/ml or less)”.
As for `CC(C)Cc1cc(CCC[C@H](C)N)cc(-c2cc3cn(-c4ccc(CNCCCNC(=N)N)cc4)c(=O)nc3[nH]2)c1F` [Compound 431], the “E. coli ATCC25922 MIC” value was “+ (a “+” indicates that the compound has an MIC value of 16 micrograms/ml or less)”.
In the case of `CC(C)Cc1cc(CCC[C@H](C)N)cc(-c2cc3cn(-c4ccc([C@H](C)NCCCNC(=N)N)cc4)c(=O)nc3[nH]2)c1F` [Compound 432], the “E. coli ATCC25922 MIC” value is recorded as “+ (a “+” indicates that the compound has an MIC value of 16 micrograms/ml or less)”.
Next, `CC(C)[C@H](NCCCNC(=N)N)c1ccc(-n2cc3cc(-c4cc(CCC[C@H](C)N)cc(Cl)c4F)[nH]c3nc2=O)cc1` [Compound 433]: “+ (a “+” indicates that the compound has an MIC value of 16 micrograms/ml or less)”; `C[C@H](N)CCCc1cc(-c2cc3cn(-c4ccc([C@H](C)NCCCNC(=N)N)cc4)c(=O)nc3[nH]2)cc(C(C)(C)C)c1` [Compound 434]: “+ (a “+” indicates that the compound has an MIC value of 16 micrograms/ml or less)”.
Next, `N=C(N)NCCCNCc1ccc(-n2cc3cc(-c4cc(OC(F)(F)F)cc(C5CCC(CN)O5)c4)[nH]c3nc2=O)cc1` (stereo not drawn) [Compound 435]: “+ (a “+” indicates that the compound has an MIC value of 16 micrograms/ml or less)”; `CC(NCCCNC(=N)N)c1ccc(-n2cc3cc(-c4cc(OC(F)(F)F)cc(C5CCC(CN)O5)c4)[nH]c3nc2=O)cc1` (stereo not drawn) [Compound 436]: “+ (a “+” indicates that the compound has an MIC value of 16 micrograms/ml or less)”.
Regarding `N=C(N)NCCCNCc1ccc(-n2cc3cc(-c4cc(OC(F)(F)F)cc(C5CCC(CN)O5)c4)[nH]c3nc2=O)cc1` (stereo not drawn) [Compound 437], the “E. coli ATCC25922 MIC” value is listed as “+ (a “+” indicates that the compound has an MIC value of 16 micrograms/ml or less)”.
The entry for `CC(NCCCNC(=N)N)c1ccc(-n2cc3cc(-c4cc(OC(F)(F)F)cc(C5CCC(CN)O5)c4)[nH]c3nc2=O)cc1` (stereo not drawn) [Compound 438] is “+ (a “+” indicates that the compound has an MIC value of 16 micrograms/ml or less)”; for `C[C@H](N)CCCc1cc(-c2cc3cn(-c4ccc(CNCCCNC(=N)N)cc4)c(=O)nc3[nH]2)cc(C(C)(C)C)c1` [Compound 439] it is “+ (a “+” indicates that the compound has an MIC value of 16 micrograms/ml or less)”.
The entry for `C[C@H](N)CCCc1cc2c(c(-c3cc4cn(-c5ccc([C@H](C)NCCCNC(=N)N)cc5)c(=O)nc4[nH]3)c1)COC2` [Compound 441] is “+ (a “+” indicates that the compound has an MIC value of 16 micrograms/ml or less)”.
For the compound `C[C@H](N)CCCc1cc2c(c(-c3cc4cn(-c5ccc(CNCCCNC(=N)N)cc5)c(=O)nc4[nH]3)c1)COC2` [Compound 442], the “E. coli ATCC25922 MIC” value is listed as “+ (a “+” indicates that the compound has an MIC value of 16 micrograms/ml or less)”.
Next, `C[C@H](N)CCCc1cc(-c2cc3cn(-c4ccc([C@H](C)NCCCNC(=N)N)cc4)c(=O)nc3[nH]2)cc2c1COC2` [Compound 443]: “+ (a “+” indicates that the compound has an MIC value of 16 micrograms/ml or less)”; `C[C@H](N)CCCc1cc(-c2cc3cn(-c4ccc(CNCCCNC(=N)N)cc4)c(=O)nc3[nH]2)cc2c1COC2` [Compound 444]: “+ (a “+” indicates that the compound has an MIC value of 16 micrograms/ml or less)”.
Next, `COC[C@H](N)CCCc1cc(Cl)c(F)c(-c2cc3cn(-c4ccc(CNCCCNC(=N)N)cc4)c(=O)nc3[nH]2)c1` [Compound 445]: “+ (a “+” indicates that the compound has an MIC value of 16 micrograms/ml or less)”.
The entry for `Cc1c(-c2cc3cn(-c4ccc(CNCCCNC(=N)N)cc4)c(=O)nc3[nH]2)cc(CCC[C@H](C)N)cc1C(C)C` [Compound 446] is “+ (a “+” indicates that the compound has an MIC value of 16 micrograms/ml or less)”; for `CC(C)c1cc(CCC[C@H](C)N)cc(-c2cc3cn(-c4ccc([C@H](C)NCCCNC(=N)N)cc4)c(=O)nc3[nH]2)c1F` [Compound 447] it is “+ (a “+” indicates that the compound has an MIC value of 16 micrograms/ml or less)”; for `N=C(N)NCCCNCc1ccc(-n2cc3cc(-c4cc(CC5CCC(N)CC5)cc(Cl)c4F)[nH]c3nc2=O)cc1` (stereo not drawn) [Compound 448] it is “+ (a “+” indicates that the compound has an MIC value of 16 micrograms/ml or less)”.
For the compound `C[C@H](NCCCNC(=N)N)c1ccc(-n2cc3cc(-c4cc(CC5CCC(N)CC5)cc(Cl)c4F)[nH]c3nc2=O)cc1` (stereo partly drawn) [Compound 449], the “E. coli ATCC25922 MIC” value is “+ (a “+” indicates that the compound has an MIC value of 16 micrograms/ml or less)”.
The entry for `N=C(N)NCCCNCc1ccc(-n2cc3cc(-c4cc(C5CCC(CN)CC5)cc(Cl)c4F)[nH]c3nc2=O)cc1` (stereo not drawn) [Compound 450] is “+ (a “+” indicates that the compound has an MIC value of 16 micrograms/ml or less)”.
